Laboratory results taken from paper PMC7584652 (Nature Communications, 2020).

What was measured:
Rel (RelA) = molecular target: T1, Rel (RelA) (Bacillus subtilis, UniProt O54408); experiment: […] TLC hydrolysis time course; format: biochemical; details: 200 nM enzyme, 100 μM substrate, 25 mM Tris-HCl pH 7.5, 1 mM MnCl2, 37 °C
T1 construct: purified

Hpt1 = Hpt1 (Bacillus anthracis, UniProt A0A6L7HDS1); details: labelled compound ([5′-α-32P]); 10 mM Tris pH 7.5, 100 mM NaCl, 5 mM MgCl2, room temperature
Xpt = Xpt (Bacillus anthracis, UniProt Q81SQ5); details: labelled compound ([5′-α-32P]); 10 mM Tris pH 7.5, 100 mM NaCl, 5 mM MgCl2, room temperature
Gmk = Gmk (Bacillus anthracis, UniProt Q81WG7); format: binding
Der = Der (Bacillus anthracis, UniProt Q81SW9); details: labelled compound ([5′-α-32P]); 10 mM Tris pH 7.5, 100 mM NaCl, 5 mM MgCl2, room temperature
Obg = Obg (Bacillus anthracis, UniProt Q81LF0); experiment: biochemical
[1] = molecular target: T2, translation elongation factor G (EF-G) (Bacillus anthracis, UniProt Q81VT3); experiment: biochemical
T2 construct: gene fusA

purified protein [2] = substrate: Nc1nc2c(ncn2[C@@H]2O[C@H](COP(=O)(O)OP(=O)(O)OP(=O)(O)O)[C@@H](OP(=O)(O)OP(=O)(O)O)[C@H]2O)c(=O)[nH]1; experiment: purified protein; details: 100 nM enzyme, 40 mM Tris-HCl pH 7.5, 100 mM NaCl, 10 mM MgCl2, 37 °C, cooperative, fitted with Hill equation
purified protein [3] = substrate: Nc1nc2c(ncn2[C@@H]2O[C@H](COP(=O)(O)OP(=O)(O)O)[C@@H](OP(=O)(O)OP(=O)(O)O)[C@H]2O)c(=O)[nH]1; experiment: purified protein; details: 100 nM enzyme, 40 mM Tris-HCl pH 7.5, 100 mM NaCl, 10 mM MgCl2, 37 °C, Hill n fixed to 1

T1 sequence (O54408 whole entry): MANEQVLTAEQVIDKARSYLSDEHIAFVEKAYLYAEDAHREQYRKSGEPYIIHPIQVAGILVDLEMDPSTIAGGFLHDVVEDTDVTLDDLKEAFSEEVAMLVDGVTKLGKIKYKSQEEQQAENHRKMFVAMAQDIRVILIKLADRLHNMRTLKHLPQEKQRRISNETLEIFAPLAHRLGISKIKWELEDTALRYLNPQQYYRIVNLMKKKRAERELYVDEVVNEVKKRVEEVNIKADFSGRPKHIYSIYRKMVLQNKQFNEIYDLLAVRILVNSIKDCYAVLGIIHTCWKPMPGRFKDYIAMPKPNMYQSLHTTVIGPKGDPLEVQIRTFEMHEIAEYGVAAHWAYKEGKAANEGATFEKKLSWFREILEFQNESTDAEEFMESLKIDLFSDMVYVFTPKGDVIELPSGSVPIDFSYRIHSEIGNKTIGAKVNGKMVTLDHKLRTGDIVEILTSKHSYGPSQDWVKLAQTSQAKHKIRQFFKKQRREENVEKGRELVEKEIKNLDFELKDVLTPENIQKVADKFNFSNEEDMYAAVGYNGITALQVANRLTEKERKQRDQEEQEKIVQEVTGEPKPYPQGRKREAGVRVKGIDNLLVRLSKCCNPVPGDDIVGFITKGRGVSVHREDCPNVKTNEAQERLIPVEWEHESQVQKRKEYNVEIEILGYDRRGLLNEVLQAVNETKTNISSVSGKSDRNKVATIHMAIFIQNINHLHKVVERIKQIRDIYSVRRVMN
Sequence of Obg (Q81LF0 whole entry, looked up): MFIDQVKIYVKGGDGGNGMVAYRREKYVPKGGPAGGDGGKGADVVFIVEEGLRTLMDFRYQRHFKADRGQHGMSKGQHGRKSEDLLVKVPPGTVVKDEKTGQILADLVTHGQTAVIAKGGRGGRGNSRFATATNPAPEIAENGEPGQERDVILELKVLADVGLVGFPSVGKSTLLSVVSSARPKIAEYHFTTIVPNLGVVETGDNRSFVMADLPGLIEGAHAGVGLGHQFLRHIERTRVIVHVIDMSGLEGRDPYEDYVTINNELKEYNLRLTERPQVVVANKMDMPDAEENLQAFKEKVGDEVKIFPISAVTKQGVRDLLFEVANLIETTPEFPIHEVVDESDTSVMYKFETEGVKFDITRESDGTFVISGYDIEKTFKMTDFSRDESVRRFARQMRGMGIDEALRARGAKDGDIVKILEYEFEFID
T2 sequence (Q81VT3 whole entry, looked up): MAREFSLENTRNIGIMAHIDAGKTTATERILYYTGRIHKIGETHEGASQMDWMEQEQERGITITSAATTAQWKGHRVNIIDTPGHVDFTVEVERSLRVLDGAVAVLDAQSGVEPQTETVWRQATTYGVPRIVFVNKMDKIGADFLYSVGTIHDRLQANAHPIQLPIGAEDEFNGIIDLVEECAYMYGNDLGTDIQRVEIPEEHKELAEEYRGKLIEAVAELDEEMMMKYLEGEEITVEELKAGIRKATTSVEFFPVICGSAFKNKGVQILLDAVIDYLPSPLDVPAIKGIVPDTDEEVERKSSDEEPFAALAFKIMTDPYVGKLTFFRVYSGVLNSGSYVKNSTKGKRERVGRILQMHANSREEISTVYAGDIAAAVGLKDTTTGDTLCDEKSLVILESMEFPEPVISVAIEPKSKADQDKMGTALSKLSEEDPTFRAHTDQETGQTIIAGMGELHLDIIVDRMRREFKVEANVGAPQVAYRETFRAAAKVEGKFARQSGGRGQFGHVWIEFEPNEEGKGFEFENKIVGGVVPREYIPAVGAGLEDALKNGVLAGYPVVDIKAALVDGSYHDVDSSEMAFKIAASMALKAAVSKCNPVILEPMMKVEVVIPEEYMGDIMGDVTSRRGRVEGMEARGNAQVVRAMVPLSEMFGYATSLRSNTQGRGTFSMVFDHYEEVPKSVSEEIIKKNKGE
Sequence of Gmk (Q81WG7 whole entry, looked up): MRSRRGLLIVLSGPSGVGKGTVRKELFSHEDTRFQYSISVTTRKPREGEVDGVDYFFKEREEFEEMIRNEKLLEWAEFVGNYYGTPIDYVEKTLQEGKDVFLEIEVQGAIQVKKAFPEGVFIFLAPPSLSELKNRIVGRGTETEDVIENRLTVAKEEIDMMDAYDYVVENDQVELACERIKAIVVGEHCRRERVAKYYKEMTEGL
Sequence of Der (Q81SW9 whole entry, looked up): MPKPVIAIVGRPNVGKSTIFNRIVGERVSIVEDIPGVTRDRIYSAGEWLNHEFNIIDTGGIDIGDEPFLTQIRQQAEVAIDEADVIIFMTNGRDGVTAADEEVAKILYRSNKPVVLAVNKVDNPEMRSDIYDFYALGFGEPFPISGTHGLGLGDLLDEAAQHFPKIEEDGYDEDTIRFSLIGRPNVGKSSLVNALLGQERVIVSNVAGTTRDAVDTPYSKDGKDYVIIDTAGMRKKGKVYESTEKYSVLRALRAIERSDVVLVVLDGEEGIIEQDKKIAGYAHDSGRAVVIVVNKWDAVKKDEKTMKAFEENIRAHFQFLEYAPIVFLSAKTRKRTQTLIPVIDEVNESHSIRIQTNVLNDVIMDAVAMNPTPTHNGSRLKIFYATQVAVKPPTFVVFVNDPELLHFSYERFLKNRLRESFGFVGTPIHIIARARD
Sequence of Xpt (Q81SQ5 whole entry, looked up): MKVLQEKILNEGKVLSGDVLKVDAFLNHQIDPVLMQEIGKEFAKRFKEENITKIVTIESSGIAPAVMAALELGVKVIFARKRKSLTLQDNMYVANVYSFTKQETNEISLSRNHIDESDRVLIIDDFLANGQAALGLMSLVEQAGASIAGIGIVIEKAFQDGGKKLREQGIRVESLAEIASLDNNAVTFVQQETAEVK
Sequence of Hpt1 (A0A6L7HDS1 1-180): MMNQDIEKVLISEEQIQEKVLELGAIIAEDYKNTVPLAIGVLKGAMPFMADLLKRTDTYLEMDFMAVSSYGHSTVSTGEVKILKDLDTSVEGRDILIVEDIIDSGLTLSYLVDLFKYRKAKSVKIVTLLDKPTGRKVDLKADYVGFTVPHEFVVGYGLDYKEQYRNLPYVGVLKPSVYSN

## Nc1nc2c(ncn2[C@@H]2O[C@H](COP(=O)(O)O)[C@@H](OP(=O)(O)OP(=O)(O)O)[C@H]2O)c(=O)[nH]1 [pGpp, guanosine-5′-monophosphate-3′-diphosphate]
Rel (RelA)
  32P TLC hydrolysis time course: pGpp was hydrolyzed more rapidly than (p)ppGpp
Hpt1
  DRaCALA, 1 μM purified protein: confirmed strong pGpp binding to guanosine nucleotide synthesis proteins (Hpt1, Gmk, and Xpt)
Xpt
  DRaCALA, 1 μM purified protein: confirmed strong pGpp binding to guanosine nucleotide synthesis proteins (Hpt1, Gmk, and Xpt)
Gmk
  DRaCALA, 1 μM purified protein: confirmed strong pGpp binding to guanosine nucleotide synthesis proteins (Hpt1, Gmk, and Xpt)

## Nc1nc2c(ncn2[C@@H]2O[C@H](COP(=O)(O)OP(=O)(O)O)[C@@H](OP(=O)(O)OP(=O)(O)O)[C@H]2O)c(=O)[nH]1 [ppGpp]
Rel (RelA)
  32P TLC hydrolysis time course: all three nucleotides can be hydrolyzed efficiently by Rel
Der
  DRaCALA, 1 μM purified protein: GTPases involved in ribosome biogenesis (HflX, Obg, Der) bind ppGpp but not pGpp
Obg
  Kd: 6 ± 2 µM
[1]
  Kd: 60 ± 8 µM

## Nc1nc2c(ncn2[C@@H]2O[C@H](COP(=O)(O)OP(=O)(O)OP(=O)(O)O)[C@@H](OP(=O)(O)OP(=O)(O)O)[C@H]2O)c(=O)[nH]1 [pppGpp]
Obg
  Kd: 48 ± 7 µM
[1]
  Kd: 296 ± 50 µM

B1: NahA (YvcI) (Bacillus subtilis subsp. subtilis str. 168) (protein)
chain: MTYLQRVTNCVLQTDDKVLLLQKPRRGWWVAPGGKMESGESVRDSVIREYREETGIYIINPQLKGVFTFIIKDGDHIVSEWMMFTFVADSYTGQNVSESEEGKLQWHDVNDIQNLPMAPGDGHILDFMMKGQGLLHGTFTYTPEFELLSYRLDPQHIK
Purified protein [2]
  K0.5: 177.4 ± 0.4 µM
  kcat: 10 ± 0.5 s⁻¹
Purified protein [3]
  Km: 7.5 ± 2.3 µM
  kcat: 1.22 ± 0.17 s⁻¹
